Species on record: Rattus norvegicus
Test: Open TG-GATES - Regimen: Daily Repeat
Type: toxicity, organism-based, Sprague-Dawley
Set-up: regimen Daily Repeat, gender Male, age 6 weeks
Conditions: in vivo, po, 30 mg/kg, route gavage, dose level Low; for APTT / Bas / Eos / Fbg / Hb / Ht / Lym / MCH / MCHC / MCV / Mono / Neu / PT / Plat / RBC / Ret / WBC: tissue Blood; for KIDNEY_L / KIDNEY_R / KIDNEY_TOTAL: tissue Kidney; for LIVER: tissue Liver; for A/G / ALP / ALT / AST / BUN / CRE / Ca / Cl / DBIL / GLC / IP / K / LDH / Na / PL / RALB / TBIL / TC / TG / TP / gamma-GTP: tissue Plasma

CC[C@H]1[C@@H]2C[C@H]3[C@@H]4N(C)c5ccccc5[C@]45C[C@@H]([C@@H]2[C@H]5O)N3[C@@H]1O [AJMALINE]
TERMINAL_BW (72 h, time 3 day): 214.3 g | APTT (72 h, time 3 day): 16.2 s | Bas (72 h, time 3 day): 0% | Eos (72 h, time 3 day): 1.2% | Fbg (72 h, time 3 day): 210 mg/dL | Hb (72 h, time 3 day): 13 g/dL | Ht (72 h, time 3 day): 39.3% | Lym (72 h, time 3 day): 78% | MCH (72 h, time 3 day): 21.7 pg | MCHC (72 h, time 3 day): 33% | MCV (72 h, time 3 day): 65.7 fL | Mono (72 h, time 3 day): 8.4% | Neu (72 h, time 3 day): 12.8% | PT (72 h, time 3 day): 11.7 s | Plat (72 h, time 3 day): 118 x10_4/uL | RBC (72 h, time 3 day): 599 x10_4/ul | Ret (72 h, time 3 day): 8.9% | WBC (72 h, time 3 day): 93 x10_2/uL | KIDNEY_L (72 h, time 3 day): 0.9 g | KIDNEY_R (72 h, time 3 day): 0.9 g | KIDNEY_TOTAL (72 h, time 3 day): 1.8 g | LIVER (72 h, time 3 day): 10.4 g | A/G (72 h, time 3 day): 2.1 | ALP (72 h, time 3 day): 904.4 IU/L | ALT (72 h, time 3 day): 36.2 IU/L | AST (72 h, time 3 day): 66.6 IU/L | BUN (72 h, time 3 day): 18.2 mg/dL | CRE (72 h, time 3 day): 0.5 mg/dL | Ca (72 h, time 3 day): 11.1 mg/dL | Cl (72 h, time 3 day): 102.6 meq/L | DBIL (72 h, time 3 day): 0.024 mg/dL | GLC (72 h, time 3 day): 198.2 mg/dL | IP (72 h, time 3 day): 7.2 mg/dL | K (72 h, time 3 day): 4.3 meq/L | LDH (72 h, time 3 day): 113 IU/L | Na (72 h, time 3 day): 139.6 meq/L | PL (72 h, time 3 day): 141.4 mg/dL | RALB (72 h, time 3 day): 3.8 g/dL | TBIL (72 h, time 3 day): 0.3 mg/dL | TC (72 h, time 3 day): 78.2 mg/dL | TG (72 h, time 3 day): 85 mg/dL | TP (72 h, time 3 day): 5.6 g/dL | gamma-GTP (72 h, time 3 day): 0.8 IU/L | TERMINAL_BW ([…], time 7 day): 248 g | TERMINAL_BW ([…], time 14 day): 297.8 g | TERMINAL_BW ([…], time 28 day): 375.4 g | APTT ([…], time 7 day): 17 s | Bas ([…], time 7 day): 0% | Eos ([…], time 7 day): 1.2% | Fbg ([…], time 7 day): 229.4 mg/dL | Hb ([…], time 7 day): 13 g/dL | Ht ([…], time 7 day): 39.1% | Lym ([…], time 7 day): 75.4% | MCH ([…], time 7 day): 21.4 pg | MCHC ([…], time 7 day): 33.3% | MCV ([…], time 7 day): 64.2 fL | Mono ([…], time 7 day): 10.2% | Neu ([…], time 7 day): 13.6% | PT ([…], time 7 day): 11.4 s | Plat ([…], time 7 day): 118.3 x10_4/uL | RBC ([…], time 7 day): 609.8 x10_4/ul | Ret ([…], time 7 day): 7% | WBC ([…], time 7 day): 106.1 x10_2/uL | APTT ([…], time 14 day): 16.7 s | Bas ([…], time 14 day): 0% | Eos ([…], time 14 day): 1% | Fbg ([…], time 14 day): 224 mg/dL | Hb ([…], time 14 day): 13.9 g/dL | Ht ([…], time 14 day): 41.9% | Lym ([…], time 14 day): 85% | MCH ([…], time 14 day): 20.3 pg | MCHC ([…], time 14 day): 33.1% | MCV ([…], time 14 day): 61.4 fL | Mono ([…], time 14 day): 4.2% | Neu ([…], time 14 day): 10% | PT ([…], time 14 day): 11.1 s | Plat ([…], time 14 day): 121.6 x10_4/uL | RBC ([…], time 14 day): 683.4 x10_4/ul | Ret ([…], time 14 day): 4.3% | WBC ([…], time 14 day): 138.2 x10_2/uL | APTT ([…], time 28 day): 17.2 s | Bas ([…], time 28 day): 0% | Eos ([…], time 28 day): 1% | Fbg ([…], time 28 day): 221.6 mg/dL | Hb ([…], time 28 day): 15.4 g/dL | Ht ([…], time 28 day): 45.5% | Lym ([…], time 28 day): 83% | MCH ([…], time 28 day): 20.4 pg | MCHC ([…], time 28 day): 33.8% | MCV ([…], time 28 day): 60.3 fL | Mono ([…], time 28 day): 4.6% | Neu ([…], time 28 day): 11.4% | PT ([…], time 28 day): 11.2 s | Plat ([…], time 28 day): 96.6 x10_4/uL | RBC ([…], time 28 day): 754.8 x10_4/ul | Ret ([…], time 28 day): 2.1% | WBC ([…], time 28 day): 110.2 x10_2/uL | KIDNEY_L ([…], time 7 day): 1 g | KIDNEY_R ([…], time 7 day): 1 g | KIDNEY_TOTAL ([…], time 7 day): 2 g | KIDNEY_L ([…], time 14 day): 1.2 g | KIDNEY_R ([…], time 14 day): 1.2 g | KIDNEY_TOTAL ([…], time 14 day): 2.3 g | KIDNEY_L ([…], time 28 day): 1.3 g | KIDNEY_R ([…], time 28 day): 1.3 g | KIDNEY_TOTAL ([…], time 28 day): 2.7 g | LIVER ([…], time 7 day): 12 g | LIVER ([…], time 14 day): 13.8 g | LIVER ([…], time 28 day): 16.1 g | A/G ([…], time 7 day): 1.8 | ALP ([…], time 7 day): 975.8 IU/L | ALT ([…], time 7 day): 34.8 IU/L | AST ([…], time 7 day): 65.6 IU/L | BUN ([…], time 7 day): 20.2 mg/dL | CRE ([…], time 7 day): 0.5 mg/dL | Ca ([…], time 7 day): 11.4 mg/dL | Cl ([…], time 7 day): 104.4 meq/L | DBIL ([…], time 7 day): 0.012 mg/dL | GLC ([…], time 7 day): 196.8 mg/dL | IP ([…], time 7 day): 7.3 mg/dL | K ([…], time 7 day): 4.7 meq/L | LDH ([…], time 7 day): 119.6 IU/L | Na ([…], time 7 day): 141.4 meq/L | PL ([…], time 7 day): 160 mg/dL | RALB ([…], time 7 day): 3.8 g/dL | TBIL ([…], time 7 day): 0.3 mg/dL | TC ([…], time 7 day): 82 mg/dL | TG ([…], time 7 day): 123.2 mg/dL | TP ([…], time 7 day): 5.9 g/dL | gamma-GTP ([…], time 7 day): 1.4 IU/L | A/G ([…], time 14 day): 2.2 | ALP ([…], time 14 day): 942.2 IU/L | ALT ([…], time 14 day): 32.4 IU/L | AST ([…], time 14 day): 61 IU/L | BUN ([…], time 14 day): 20 mg/dL | CRE ([…], time 14 day): 0.5 mg/dL | Ca ([…], time 14 day): 10.9 mg/dL | Cl ([…], time 14 day): 105.2 meq/L | DBIL ([…], time 14 day): 0.01 mg/dL | GLC ([…], time 14 day): 201 mg/dL | IP ([…], time 14 day): 7.1 mg/dL | K ([…], time 14 day): 4.5 meq/L | LDH ([…], time 14 day): 104.8 IU/L | Na ([…], time 14 day): 141.4 meq/L | PL ([…], time 14 day): 157.6 mg/dL | RALB ([…], time 14 day): 3.9 g/dL | TBIL ([…], time 14 day): 0.3 mg/dL | TC ([…], time 14 day): 80 mg/dL | TG ([…], time 14 day): 106.8 mg/dL | TP ([…], time 14 day): 5.8 g/dL | gamma-GTP ([…], time 14 day): 1.8 IU/L | A/G ([…], time 28 day): 1.8 | ALP ([…], time 28 day): 659.2 IU/L | ALT ([…], time 28 day): 30.8 IU/L | AST ([…], time 28 day): 62.8 IU/L | BUN ([…], time 28 day): 19.6 mg/dL | CRE ([…], time 28 day): 0.6 mg/dL | Ca ([…], time 28 day): 10.5 mg/dL | Cl ([…], time 28 day): 105.2 meq/L | DBIL ([…], time 28 day): 0.008 mg/dL | GLC ([…], time 28 day): 198.2 mg/dL | IP ([…], time 28 day): 6.2 mg/dL | K ([…], time 28 day): 4.5 meq/L | LDH ([…], time 28 day): 109.6 IU/L | Na ([…], time 28 day): 142.4 meq/L | PL ([…], time 28 day): 158.2 mg/dL | RALB ([…], time 28 day): 3.9 g/dL | TBIL ([…], time 28 day): 0.3 mg/dL | TC ([…], time 28 day): 71.8 mg/dL | TG ([…], time 28 day): 190.2 mg/dL | TP ([…], time 28 day): 6.1 g/dL | gamma-GTP ([…], time 28 day): 1 IU/L

— ChEMBL document CHEMBL3885861, “Open TG-GATES”
